Experimental data reported in patent US5196327A, “Process for producing antifungal fermentation products and compositions thereof” (Merck & Co., Inc., priority 1991, dated 1993).
Converted amounts (≈) assume the structure as drawn. Read-outs that look alike come from different tables or passages of the source.

Legend:
[1] = tested on: panel of representative yeasts, filamentous fungi (molds) and bacteria; assay: Antifungal disc diffusion assay, panel; assay type: cell-based; conditions: panel of organisms
From the text: (§1) The antifungal activity of the compounds may be detected in an antifungal assay employing disc diffusion methods against a panel of representative yeasts, filamentous fungi (molds) and bacteria.
(§2) The filamentous fungi used in the assay are Cochliobolus miyabeanus, Penicillium sp. (three strains), Aspergillus niger, Trichoderma sp., Phoma sp., Trichoderma lignorum, Fusarium oxysporum, Ustilago maydis, Ceratocystis ulmi, Alternaria solani, Verticillium serrae, Botrytis allii, Scopulariopsis communis, Cephalosporium sp., Cercospora beticola, […], Rhizomucor miehei, Aspergillus flavus and Aspergillus fumigatus.
(§3) The yeasts employed in the assay are Saccharomyces cerevisiae, Candida albicans, […], Candida tropicalis, Candida rugosa, Brettanomyces bruxellensis, Torulospora hansenii, Candida quilliermondi, Candida pseudotropicalis, Torulopsis glabrata, Cryptococcus albidus, and Cryptococcus laurentii.
The bacteria employed in the assay are Streptomyces sp., Acholeplasma laidlawii and Bacillus subtilis.
(§4) For carrying out the assay, seeded assay plates are prepared in the following manner according to the type of assay strain.
(§5) Inocula for filamentous fungi are prepared by scraping the surface of stock plates maintained on potato dextrose agar with a moistened sterile dacron swab. The spores and mycelia are then suspended in 10 milliliters of sterile potato dextrose broth and adjusted to 70 percent transmission at 660 nm.
(§6) Inocula for yeasts and bacterial strains are prepared from overnight broth cultures then diluted into potato dextrose agar to a final concentration of either 40 percent or 70 percent transmission at 660 nm.
When the organism is Acholephasma laidlawii, it is suspended in brain heart infusion broth supplemented with 2.5 percent yeast extract and 20 percent heat inactivated horse serum, and the broth adjusted to a final concentration of 60 percent transmission at 660 nm. […]
(§7) Following incubation, the inhibition zones are measured and recorded. […]

[2] = tested on: Ustilago maydis; assay: Antifungal disc diffusion assay; assay type: cell-based
From the text: as §1, §2, §4, §5
(§8) The seeded agar media thus prepared are dispensed into petri dishes for assays (11 milliliters per dish).
The samples to be tested for production of antifungal agent are applied to 6.2 mm. filter paper discs (25 microliter/disc) and air dried at 24° C. […]
as §7

[3] = tested on: Candida albicans (five strains); assay: Antifungal disc diffusion assay; assay type: cell-based; conditions: five strains of Candida albicans
From the text: as §1, §3, §4, §6
For three strains of Candida albicans and one strain of Saccharomyces cerevisiae, sterile saline is employed in place of potato dextrose broth. Assay plates are prepared by diluting the inoculum into appropriate molten agar medium, cooled to 45° C. to obtain a final concentration of 4 percent.
The seeded agar media thus prepared are dispensed into petri dishes for assays (11 milliliters per dish). […]
as §7

[4] = tested on: Candida tropicalis; assay: Antifungal disc diffusion assay; assay type: cell-based
From the text: as §1, §3, §4, §6, §8
(§9) The samples to be tested for production of antifungal agent are applied to 6.2 mm. filter paper discs (25 microliter/disc) and air dried at 24° C. When the sample to be tested is crude broth, it may be centrifuged prior to application. The discs bearing the material to be tested are then applied employing sterile conditions to the seeded assay plates and the samples rewet with 25 percent sterile aqueous dimethylsulfoxide (25 μl/disc). The assay plates are then incubated at either 28° C. or 37° C. for 24 hours. In one of the assays for Bacillus subtilis, the sample is applied to a disc previously impregnated with 4M potassium chloride at 25 μl/disc and then air dried.
(§10) Following incubation, the inhibition zones are measured and recorded. The measurements are made from the extreme edge where growth differs from the background zone. The growths are noted as to appearance as fuzzy edge and clear center, hazy throughout, slightly hazy, very hazy or ringed.

[5] = tested on: Cryptococcus albidus; assay: Antifungal disc diffusion assay; assay type: cell-based
From the text: as §1, §3, §4, §6, §8, §9, §10

[6] = tested on: Torulospora hansenii; assay: Antifungal disc diffusion assay; assay type: cell-based
From the text: as §1, §3, §4, §6, §8, §9, §10

[7] = tested on: Aspergillus niger; assay: Antifungal disc diffusion assay; assay type: cell-based
From the text: as §1, §2, §3, §4
Inocula for filamentous fungi are prepared by scraping the surface of stock plates maintained on potato dextrose agar with a moistened sterile dacron swab. […]
as §7

[8] = tested on: Aspergillus fumigatus MF4839; assay: Agar dilution assay, MIC; assay type: cell-based; conditions: strain MF4839, yeast nitrogen base dextrose agar; for MIC: read-out: Minimum Inhibitory Concentration
Protocol: (§11) In separate operations, in vitro antifungal activity determinations were carried out with Compound IB and with Compound IC against a panel of filamentous and yeast-like fungi employing yeast nitrogen base dextrose agar medium. In carrying out the assay, the compound to be tested was solubilized in 10 percent dimethyl sulfoxide (DMSO) supplemented with one drop of Tween 20. Two-fold dilutions were made with sterile distilled water/10% DMSO to obtain final concentrations in the agar dilution assay plates ranging from 64 to 0.06 μg/ml in the operation with Compound IB and from 128 to 0.06 μg/ml in the operation with Compound IC.
(§12) Nystatin (commercially available antifungal agent) was used as a positive antifungal control.

[9] = tested on: Ca. guilliermondi MY1019; assay: Agar dilution assay, MIC; assay type: cell-based; conditions: strain MY1019, yeast nitrogen base dextrose agar; for MIC: read-out: Minimum Inhibitory Concentration
Protocol: as §11, §12

[10] = tested on: Ca. krusei MY1020; assay: Agar dilution assay, MIC; assay type: cell-based; conditions: strain MY1020, yeast nitrogen base dextrose agar; for MIC: read-out: Minimum Inhibitory Concentration
Protocol: as §11, §12

[11] = tested on: Ca. parapsilosis MY1009; assay: Agar dilution assay, MIC; assay type: cell-based; conditions: strain MY1009, yeast nitrogen base dextrose agar; for MIC: read-out: Minimum Inhibitory Concentration
Protocol: as §11, §12

[12] = tested on: Ca. parapsilosis MY1010; assay: Agar dilution assay, MIC; assay type: cell-based; conditions: strain MY1010, yeast nitrogen base dextrose agar; for MIC: read-out: Minimum Inhibitory Concentration
Protocol: as §11, §12

[13] = tested on: Ca. stellatoidea MY1017; assay: Agar dilution assay, MIC; assay type: cell-based; conditions: strain MY1017, yeast nitrogen base dextrose agar; for MIC: read-out: Minimum Inhibitory Concentration
Protocol: as §11, §12

[14] = tested on: Candida albicans MY1058; assay: Agar dilution assay, MIC; assay type: cell-based; conditions: strain MY1058, yeast nitrogen base dextrose agar; for MIC: read-out: Minimum Inhibitory Concentration
Protocol: as §11, §12

[15] = tested on: Cryptococcus neoformans MY1051; assay: Agar dilution assay, MIC; assay type: cell-based; conditions: strain MY1051, yeast nitrogen base dextrose agar; for MIC: read-out: Minimum Inhibitory Concentration
Protocol: as §11, §12

[16] = tested on: Penicillium italicum MF2819; assay: Agar dilution assay, MIC; assay type: cell-based; conditions: strain MF2819, yeast nitrogen base dextrose agar; for MIC: read-out: Minimum Inhibitory Concentration
Protocol: as §11, §12

[17] = tested on: Torulopsis glabrata MY1059; assay: Agar dilution assay, MIC; assay type: cell-based; conditions: strain MY1059, yeast nitrogen base dextrose agar; for MIC: read-out: Minimum Inhibitory Concentration
Protocol: as §11, §12

[18] = tested on: Cr. neoformans MY1146; assay: Agar dilution assay, MIC; assay type: cell-based, Cryptococcus neoformans; conditions: strain MY1146, yeast nitrogen base dextrose agar; for MIC: read-out: Minimum Inhibitory Concentration
Protocol: as §11, §12

[19] = tested on: Ca. albicans MY0992; assay: Agar dilution assay, MIC; assay type: cell-based, Candida albicans; conditions: strain MY0992, yeast nitrogen base dextrose agar; for MIC: read-out: Minimum Inhibitory Concentration
Protocol: as §11, §12

[20] = tested on: Ca. albicans MY1013; assay: Agar dilution assay, MIC; assay type: cell-based, Candida albicans; conditions: strain MY1013, yeast nitrogen base dextrose agar; for MIC: read-out: Minimum Inhibitory Concentration
Protocol: as §11, §12

[21] = tested on: Ca. albicans MY1029; assay: Agar dilution assay, MIC; assay type: cell-based, Candida albicans; conditions: strain MY1029, yeast nitrogen base dextrose agar; for MIC: read-out: Minimum Inhibitory Concentration
Protocol: as §11, §12

[22] = tested on: Ca. albicans MY1055; assay: Agar dilution assay, MIC; assay type: cell-based, Candida albicans; conditions: strain MY1055, yeast nitrogen base dextrose agar; for MIC: read-out: Minimum Inhibitory Concentration
Protocol: as §11, §12

[23] = tested on: Ca. tropicalis MY1011; assay: Agar dilution assay, MIC; assay type: cell-based, Candida tropicalis; conditions: strain MY1011, yeast nitrogen base dextrose agar; for MIC: read-out: Minimum Inhibitory Concentration
Protocol: as §11, §12

[24] = tested on: Ca. tropicalis MY1012; assay: Agar dilution assay, MIC; assay type: cell-based, Candida tropicalis; conditions: strain MY1012, yeast nitrogen base dextrose agar; for MIC: read-out: Minimum Inhibitory Concentration
Protocol: as §11, §12

[25] = tested on: Ca. pseudotropicalis MY1040; assay: Agar dilution assay, MIC; assay type: cell-based, Candida pseudotropicalis; conditions: strain MY1040, yeast nitrogen base dextrose agar; for MIC: read-out: Minimum Inhibitory Concentration
Protocol: as §11, §12

[26] = tested on: Ca. rugosa MY1022; assay: Agar dilution assay, MIC; assay type: cell-based, Candida rugosa; conditions: strain MY1022, yeast nitrogen base dextrose agar; for MIC: read-out: Minimum Inhibitory Concentration
Protocol: as §11, §12

[27] = tested on: Sac. cerevisiae MY1027; assay: Agar dilution assay, MIC; assay type: cell-based, Saccharomyces cerevisiae; conditions: strain MY1027, yeast nitrogen base dextrose agar; for MIC: Saccharomyces cerevisiae, read-out: Minimum Inhibitory Concentration
Protocol: as §11, §12

[28] = tested on: A. flavus MF0383; assay: Agar dilution assay, MIC; assay type: cell-based, Aspergillus flavus; conditions: strain MF0383, yeast nitrogen base dextrose agar; for MIC: read-out: Minimum Inhibitory Concentration
Protocol: as §11, §12

CCCCCCC(O)CCCCCCC=CC(O)C(O)C(O)C(NC(=N)N)C(=O)O (stereo not shown) [Compound IA, 2-guanidino-3,4,5,14-tetrahydroxy-6-eicosenoic acid]
antifungal activity [1]: good activity against almost all of the organisms
antifungal activity ([1]; listed as I-A): activity against a number of fungal organisms
antifungal activity [2]: good activity
antifungal activity ([2]; listed as I-A): especially good activity
antifungal activity [3]: good activity
antifungal activity [4]: good activity
antifungal activity [5]: good activity
antifungal activity [6]: good activity
antifungal activity [7]: good activity

CCCCCCC(O)CCCCCCC=CC(O)C(O)C(O)C(N)C(=O)O (stereo not shown) [Compound IB, 2-amino-3,4,5,14-tetrahydroxy-6-eicosengoic acid]
MIC [8]: 64 µg/mL (≈ 164 µM)
MIC [9]: > 64 µg/mL
MIC [10]: > 64 µg/mL
MIC [11]: 32 µg/mL (≈ 82.1 µM)
MIC [12]: 2 µg/mL (≈ 5.13 µM)
MIC [13]: 16 µg/mL (≈ 41.1 µM)
MIC [14]: 16 µg/mL (≈ 41.1 µM)
MIC [15]: 2 µg/mL (≈ 5.13 µM)
MIC [16]: > 64 µg/mL
MIC [17]: 16 µg/mL (≈ 41.1 µM)
MIC [18]: 2 µg/mL (≈ 5.13 µM)
MIC [19]: 32 µg/mL (≈ 82.1 µM)
MIC [20]: 32 µg/mL (≈ 82.1 µM)
MIC [21]: 64 µg/mL (≈ 164 µM)
MIC [22]: 32 µg/mL (≈ 82.1 µM)
MIC [23]: 16 µg/mL (≈ 41.1 µM)
MIC [24]: 2 µg/mL (≈ 5.13 µM)
MIC [25]: 0.5 µg/mL (≈ 1.28 µM)
MIC [26]: > 64 µg/mL
MIC [27]: 16 µg/mL (≈ 41.1 µM)
MIC [28]: 64 µg/mL (≈ 164 µM)
antifungal activity [1]: consistently active against most of the 41 of the filamentous fungi and yeasts

CCCCCCC(O)CCCCCCC=CC(OC(C)=O)C(O)C(O)C(N)C(=O)O (stereo not shown) [Compound IC, 5-acetyloxy-2-amino-3,4,14-trihydroxy-6-eicosenoic acid]
MIC [8]: 64 µg/mL (≈ 148 µM)
MIC [9]: > 128 µg/mL
MIC [10]: > 128 µg/mL
MIC [11]: > 128 µg/mL
MIC [12]: 8 µg/mL (≈ 18.5 µM)
MIC [13]: 32 µg/mL (≈ 74.1 µM)
MIC [14]: 32 µg/mL (≈ 74.1 µM)
MIC [15]: 2 µg/mL (≈ 4.63 µM)
MIC [16]: 32 µg/mL (≈ 74.1 µM)
MIC [17]: 16 µg/mL (≈ 37.1 µM)
MIC [18]: 2 µg/mL (≈ 4.63 µM)
MIC [19]: 128 µg/mL (≈ 297 µM)
MIC [20]: 128 µg/mL (≈ 297 µM)
MIC [21]: > 128 µg/mL
MIC [22]: 128 µg/mL (≈ 297 µM)
MIC [23]: 32 µg/mL (≈ 74.1 µM)
MIC [24]: 2 µg/mL (≈ 4.63 µM)
MIC [25]: 2 µg/mL (≈ 4.63 µM)
MIC [26]: > 128 µg/mL
MIC [27]: 32 µg/mL (≈ 74.1 µM)
MIC [28]: 64 µg/mL (≈ 148 µM)

C[C@@H]1[C@H](O)[C@@H](C)/C=C/C=C/CC/C=C/C=C/C=C/C=C/C(O[C@H]2O[C@H](C)[C@@H](O)[C@H](N)[C@@H]2O)CC2O[C@](O)(CC(O)C(O)CCC(O)CC(O)CC(O)CC(=O)O[C@H]1C)CC(O)C2C(=O)O (stereo partly shown) [Nystatin, reference compound]
Minimum Inhibitory Concentration [8]: 2 µg/mL
Minimum Inhibitory Concentration [9]: 2 µg/mL
Minimum Inhibitory Concentration [10]: 2 µg/mL
Minimum Inhibitory Concentration [11]: 4 µg/mL
Minimum Inhibitory Concentration [12]: 2 µg/mL
Minimum Inhibitory Concentration [13]: 2 µg/mL
Minimum Inhibitory Concentration [14]: 2 µg/mL
Minimum Inhibitory Concentration [15]: 2 µg/mL
Minimum Inhibitory Concentration [16]: 2 µg/mL
Minimum Inhibitory Concentration [17]: 1 µg/mL
Minimum Inhibitory Concentration [18]: 2 µg/mL
Minimum Inhibitory Concentration [19]: 2 µg/mL
Minimum Inhibitory Concentration [20]: 2 µg/mL
Minimum Inhibitory Concentration [21]: 2 µg/mL
Minimum Inhibitory Concentration [22]: 2 µg/mL
Minimum Inhibitory Concentration [23]: 2 µg/mL
Minimum Inhibitory Concentration [24]: > 128 µg/mL
Minimum Inhibitory Concentration [25]: 1 µg/mL
Minimum Inhibitory Concentration [26]: 4 µg/mL
Minimum Inhibitory Concentration [27]: 1 µg/mL
Minimum Inhibitory Concentration [28]: 2 µg/mL
